Laboratory results published in ChEMBL document CHEMBL1150182, “Lissoclinolide, the first non-nitrogenous metabolite from a Lissoclinum tunicate” (J Nat Prod, 1990).
Activity calls are given as the source filed them. The rule behind the calls is not given here.

Test system: Escherichia coli
Test: Antibacterial activity against Escherichia coli
Assay type: functional, organism-based

O=C1O/C(=C\C=C\CO)C=C1/C=C/CO
Activity: inactive
